Reference: patent US20090233307A1, “METHODS FOR DETECTION OF SINGLE STRAND BREAKS IN DNA” (The University of North Carolina at Chapel Hill, priority 2008, published 2009)

Experiments:
Pol β null cells = assay: SSB repair through NAD(P)H depletion, Pol β null cells; type: cell-based, chicken; conditions: Pol β null cells exposed to MMS
Description: (§1) SSB repair capacity was determined by a real-time colorimetric assay that measures intracellular NAD(P)H levels (Tano et al., DNA Repair, 6, 869-875 (2007)). PARP-1 activation during SSB repair leads to NAD^+ consumption, which can be indirectly monitored through NAD(P)H depletion (Nakamura et al., Nucleic Acids Res., 31, e104 (2003)). Briefly, 5×10^3 cells/well were seeded into a 96-well plate. After a 30 minute incubation period, the cells were treated with 1 mM MMS quickly followed by the addition of a dye containing XTT (Sigma) and 1-methoxy PMS (Sigma). For up to 4 hours, the NAD(P)H-dependent conversion of the XTT tetrazolium salt to a yellow colored formazan dye was measured spectrophotometrically. Decreases in intracellular NAD(P)H levels were determined through comparison of values to those of the PBS control. Established methods for detecting SSBs have not been adequately characterized for pH effects on DNA structure and chemistry and also lack a high specificity for SSBs, primarily because of artifactual SSB formation. […] The accumulation of SSBs leads to PARP-1 over-activation and the consumption of NAD+, which is indirectly monitored in living cells through the measurement of intracellular NAD(P)H depletion using tetrazolium salts, such as XTT, during chemical exposure (Tano et al., DNA Repair, 6, 869-875 (2007)). […]

DT40 cells [1] = assay: SSB repair through NAD(P)H depletion, DT40 cells; type: cell-based, chicken; conditions: DT40 cells exposed to MMS
Description: as §1

DT40 cells [2] = assay: Cell death in DT40 cells; type: cell-based; conditions: unpublished data
[3] = system: Chinese hamster ovary (CHO) AA8 cells; assay: OTX-coupled comet assay; type: cell-based; conditions: 1 mM MMS 10 minutes
Description: Chinese hamster ovary (CHO) AA8 cells were seeded at a concentration 0.5×10^6 cell/mL into several 10 cm culture dishes with 10 mL of MEM-α media (Gibco) supplemented with 10% fetal bovine serum (heat inactivated; Sigma), 100 μg/mL penicillin, and 100 μg/mL streptomycin. These were allowed to grow for 48 hours at 37° C. and 5% CO2. Culture dishes were about 80-85% confluent at harvest.
Before cells were harvested for use in the comet assay, the lysis solution (2.5 M NaCl, 100 mM Na2-EDTA, 10 mM Trizma, pH 10) was completed with the addition of 10% (v/v) DMSO and 1% (v/v) Triton X-100, mixed thoroughly, and refrigerated at 4° C. A 0.5% solution of low melting point agarose (LMPA) was also prepared and allowed to equilibrate to 37° C. in a water bath. Partially frosted microscope slides, pre-coated several days before with 50 μL of 1% normal melting point agarose (NMPA), were labeled and set aside.
Prior to cell harvest, the media was removed and each dish was washed with 10 mL of 1×PBS. An additional 2 mL of 1×PBS was added to each dish and the cells were harvested using a rubber policeman. Harvested cells were combined into 15 mL centrifuged tubes and gently mixed by pipetting to obtain a homogenous cell sample. The cell count was obtained using a hemacytometer. The volume of cell sample needed to obtain 11,000 cells per slide to be prepared was added to a new 15 mL centrifuge tube and centrifuged for 5 minutes at 1,100 RPM. The supernatant was removed and the cell pellet resuspended in 1×PBS at a volume equal to 10 μL per slide to be prepared (e.g. 5 slides×10 μL per slide=50 μL 1×PBS total).
For each slide to be prepared, 10 μL of the cell sample was added to a 1.5 mL centrifuge tube. The cell layer of the slide was created by first gently mixing 100 μL of the 0.5% LMPA with the 10 μL of cell sample in the tube. This mixture was then added to a pre-coated slide and a coverslip placed onto the slide to create a thin layer of the cell mixture. Slides with cell layers were then refrigerated at 4° C. for 15 minutes to solidify the gel. After this incubation, the initial coverslips were removed and an additional 150 μL of 0.5% LMPA was added to each slide. A fresh coverslip was placed onto each slide to create a thin top layer and the slides were refrigerated for another 15 minutes. After removing the coverslip, completed slides that were receiving MMS treatment were placed in a slide chamber containing warmed MEM-α media with 1 mM MMS for 10 minutes. The slide chamber was kept warm by placing it within an incubator held at 37° C. After the 10 minutes, the slides were washed with 1×PBS for 5 minutes at room temperature and then transferred to slide chambers containing the chilled lysis solution. […]

[4] = system: AP sites in genomic DNA exposed to heat/acid conditions; assay: OTX optimization for protection of AP sites from alkaline cleavage (alkaline gel electrophoresis); set-up: species or system chicken; conditions: OTX 37° C. 1 hour, denaturation 100 mM NaOH (pH 12.8)
Description: AP sites were produced in stock DT40 DNA through exposure to heat/acid conditions. DT40 DNA was incubated in sodium citrate buffer (10 mM sodium citrate, 10 mM NaH2PO4, 10 mM NaCl pH 5) for 5 minutes at 70° C., followed by rapid chilling on ice to stop the reaction (Nakamura et al., Cancer Res., 58, 222-225 (1998)). Depurinated DNA was collected using Microcon® YM-3 centrifugal filter devices (Amicon Bioseparations). This DNA was then washed several times with HEPES buffer (50 mM, pH 7) supplemented with 1 mM 2,2,6,6-tetramethylpiperidine-N-oxyl (TEMPO). DNA was resuspended in HEPES buffer containing 1 mM TEMPO.
An alkaline gel electrophoresis protocol (AGE) (Drouin et al., in: Technologies for Detection of DNA Damage and Mutations (G. P. Pfeifer, ed.). Plenum Press, New York, N.Y., pp. 37-43 (1996)) with modifications was used to assess SSBs and ALSs in DNA from exposed cells. The 0.7% agarose gel was prepared in gel buffer (50 mM NaCl, 1 mM EDTA, pH 7) and deionized water. After forming, the gel was soaked in mild alkaline running buffer (30 mM NaOH, 1 mM EDTA, pH 12.4) for at least 30 minutes. Equal amounts of DNA (3-5 μg) were incubated for 1 hour at 37° C. in the presence or absence of 30 mM OTX (Aldrich) in 50 mM HEPES buffer. […] Following OTX exposure, the samples were denatured through treatment with an alkaline buffer (100 mM NaOH, 30 mM OTX, 50 mM HEPES, pH 12.8) for 20 minutes at 37° C. Samples then received loading buffer (10 mM NaOH, 95% formamide (Fluka), 0.05% bromophenol blue, 0.05% xylene cyanol) and were loaded onto the agarose gel. The gel was subjected to electrophoresis at a constant voltage (30 V) for 16 hours at 4° C. At the completion of electrophoresis, the gel was placed in neutralization buffer (400 mM Tris, pH 7.5) for 20 minutes at room temperature. […]
With knowledge of optimal AP site cleavage (pH≧12.2) and DNA denaturation (pH≦12.56) conditions, the utility of stabilizing AP sites prior to complete unwinding at high pH was assessed for subsequent gel electrophoresis. […]

Row | Compound | protection from MMS-induced NAD(P)H depletion (Pol β null cells) | protection from MMS-induced NAD(P)H depletion (DT40 cells [1]) | concentration that induces cell death (DT40 cells [2]) [µM] | tail moments over the various incubation times with OTX protection ([3]; 300 mM OTX 0-4 hours at 37° C.) | tail moment with OTX protection vs 1 hour incubation without OTX ([3]; 300 mM OTX, 1 hour incubation) | tail moment, one hour incubation with OTX vs zero hour incubation control without OTX ([3]; 300 mM OTX, one hour) | optimum concentration to protect AP sites from alkaline cleavage [4] [mM] | OTX concentration with complete protection of AP sites from alkaline cleavage ([4]; electrophoresis pH 12.4) [mM] | OTX concentration with little to no protection of AP sites from alkaline cleavage ([4]; electrophoresis pH 12.4) [mM]
1 | NC(=O)c1cccc(N)c1 [3-aminobenzamide] | mostly protected | mostly protected |  |  |  |  |  |  | 
2 | CON [Methoxyamine] |  |  | 20000 to 30000 |  |  |  |  |  | 
3 | NOC1CCCCO1 (stereo not shown) [OTX, O-(tetrahydro-2H-pyran-2-yl)hydroxylamine] |  |  | 2000 | no significant increase in tail moments | significant decrease in tail moment | significant decrease in tail moment | 30 | ≥ 10 | < 1
